Test results taken from the supplement of paper PMC9436093.

What was measured:
Assay in all cases: cell viability relative to DMSO (100%) and bortezomib (0%) controls; higher = more viable / less sensitive
Details in all cases: 72 h
[1] = test system: HAP1 wildtype + MS-275 1 uM (6 h pretreatment)
Method: (§1)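 HAP1 cells (wildtype, HDAC1/2/3 catalytically inactive H>A mutant lines in wildtype or knockout background, HDAC3 KO, or wildtype pre-treated 6 h with 1 uM MS-275 or JQ12) were seeded onto compound-containing 384-well plates with an 8-point 1:3 dose series. ATP was read by CellTiter-Glo after 72 h. Viability is normalised to plate DMSO wells (100%) and bortezomib positive-control wells (0%) after outlier removal. Duplicate screen.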

[2] = test system: HAP1 wildtype
Method: as §1

[3] = test system: HAP1 wildtype + JQ12 1 uM (6 h pretreatment)
Method: as §1

[4] = test system: HAP1 HDAC1 KO + HDAC1 H141A transgene
Method: as §1

[5] = test system: HAP1 WT + HDAC3 H135A transgene
Method: as §1

[6] = test system: HAP1 HDAC3 KO
Method: as §1

[7] = test system: HAP1 WT + HDAC1 H141A transgene
Method: as §1

[8] = test system: HAP1 WT + HDAC2 H142A transgene
Method: as §1

[9] = test system: HAP1 HDAC3 KO + HDAC3 H135A transgene
Method: as §1

[10] = test system: HAP1 HDAC2 KO + HDAC2 H142A transgene
Method: as §1

Cn1cc(-c2ccc(S(=O)(=O)n3ccc(/C=C/C(=O)Nc4ccccc4N)c3)cc2)cn1 [4SC-202]
cell viability [%]
Details	[1]	[2]	[3]	[4]	[5]	[6]	[7]	[8]	[9]	[10]
0.0123 µM	168	105	123	137	140	120	125	141	130	125
0.037 µM	112	88.7	113	106	89.7	95.7	85.5	78.14	85.68	108
0.111111111 µM	121	120	133	109	128	127	110	135	109	157
0.333333333 µM	123	98.9	98.5	111	133	122.3	117	117	104	93.36
1 µM	3.53	22.3	10.9	7.79	6.41	11.2	-2.58	-0.0563	-3.64	82.3
3 µM	-1.84	-0.806	-3.08	-53.5	-13.8	-10.7	-21.1	-10.7	-11	-4.75
9 µM	-6.4	-6.67	-6.3	-23.1	-10.1	-10.9	-15.7	-11.2	-9.81	-2.31
27 µM	0.166	2.64	-3.68	14.2	-6.44	-5.87	-7.2	-5.99	-4.35	-4.84

CNC(=O)c1ccccc1Sc1ccc2c(/C=C/c3ccccn3)n[nH]c2c1 [Axitinib]
cell viability [%]
Details	[1]	[2]	[3]	[4]	[5]	[6]	[7]	[8]	[9]	[10]
0.0123 µM	114	119	106	112	114	120	105	130	121	113
0.037 µM	92.3	95.8	76.9	94.3	90.2	99.1	90.6	82.1	87	94
0.111111111 µM	93.5	121	82.1	93	96.9	87.1	93.5	88.7	94	86.6
0.333333333 µM	101	102	109	84.5	121	102	94.8	101	101	107
1 µM	113	115	102	155	147	172	121	140	129	137
3 µM	67.8	72	57.83	54	88.11	48.9	21.8	46.4	34.8	23.4
9 µM	52.5	62	48.6	26.6	101	79.4	5.34	16.3	36.3	-0.112
27 µM	65.8	92.3	72.2	36	102	50.5	25.9	46.8	50.1	27.5

Nc1ncn([C@H]2C[C@H](O)[C@@H](CO)O2)c(=O)n1 [decitabine]
cell viability [%]
Details	[1]	[2]	[3]	[4]	[5]	[6]	[7]	[8]	[9]	[10]
0.0309 µM	107	104	92.9	106	105	96.5	95.3	102	100	105.4
0.0926 µM	82.5	96.6	98	117	117	103	96.2	109	111	104
0.277777778 µM	71.3	110	72.8	93.4	116	125	68.1	80.5	115	89.47
0.833333333 µM	40.43	141	50.9	51.5	153	155	27.2	44.3	148	37.5
2.5 µM	9.68	115	15.9	24.3	119.46	144	-11.5	5.61	148	10.8
7.5 µM	9.13	60.8	1.97	0.764	49.5	112	0.523	4.31	96.2	5.27
22.5 µM	2.79	50.1	3.44	5.07	58.5	123	-11.1	0.159	114	-5.41
67.5 µM	10.8	47.2	1.41	19.6	61.2	147	1.73	7.07	108	9.97

COc1cc(Nc2ncc3c(n2)-c2ccc(Cl)cc2C(c2c(F)cccc2OC)=NC3)ccc1C(=O)O [Alisertib]
cell viability [%]
Details	[1]	[2]	[3]	[4]	[5]	[6]	[7]	[8]	[9]	[10]
0.00617 µM	107	103	79.6	95.2	92.9	94.9	101	86.2	103	103
0.0185 µM	128	136	100	122	103	131	95.7	115	121	92.1
0.0556 µM	108	100	95.3	109	123	117	95.2	99.5	112	103
0.166666667 µM	43.2	110	34.2	52.1	147	70	71.2	62.6	70.2	31.8
0.5 µM	72.44	96.5	51.9	53.3	105	111	37.1	49.8	79.4	51
1.5 µM	61.6	83.2	51.7	38.4	101	114	15.1	21.9	82.3	54.5
4.5 µM	53.2	74.2	54.4	33.1	90.6	103	22.1	17.5	71.6	36.2
13.5 µM	46.8	73.4	52	19.6	108	116	2.6	12.7	89	21.8
